These results are taken from ChEMBL document CHEMBL1147928, “Engineering small molecule specificity in nearly identical cellular environments” (Bioorg Med Chem Lett, 2007).

For test [1], the system named is MEF. Nature of the test: Cytotoxicity against FKBP deficient MEF cells by MTT assay. It is filed as cell-based. The following applies: Mus musculus.
The nature of test [2]: Cytotoxicity against mouse wild type fibroblast cells by MTT assay. The class given is cell-based.

On to `CN(Cc1cnc2nc(N)nc(N)c2n1)c1ccc(C(=O)NC(CCC(=O)O)C(=O)O)cc1` (single isomer, unassigned) [METHOTREXATE], for which the IC50 worked out at 0.12 µM in test [1] and 0.18 µM in test [2].
